Measured values published in the NIST ThermoML archive (doi:10.1016/j.tca.2006.04.016).
± gives the expanded uncertainty stated by the source.

Experiment: xn = mol fraction of the nth substance listed
Conditions: 101 kPa, Liquid, Vibrating tube method, x1 = 1

O [water] + CN(C)CCCN
Conditions | mass density [kg/m3]
283.15 K | 999.7 ± 0.51
323.15 K | 988.03 ± 0.5
328.15 K | 985.69 ± 0.5
333.15 K | 983.191 ± 0.5
338.15 K | 980.55 ± 0.5
343.15 K | 977.76 ± 0.5
348.15 K | 974.84 ± 0.5
353.15 K | 971.79 ± 0.49
